Test results published in PMC7932537, “Quantitative profiling of protease specificity” (PLoS Computational Biology, 2021).

How the values were obtained:
MMP-9 = MMP-9 (Homo sapiens, UniProt P14780); assay: K(obs) of individual phage substrates (set of 1369); assay type: biochemical; conditions: MMP9
MMP-2 [1] = target: T1, MMP-2 (Homo sapiens, UniProt P08253); assay: as above; assay type: biochemical; conditions: MMP2
T1 sequence (P08253 110-660): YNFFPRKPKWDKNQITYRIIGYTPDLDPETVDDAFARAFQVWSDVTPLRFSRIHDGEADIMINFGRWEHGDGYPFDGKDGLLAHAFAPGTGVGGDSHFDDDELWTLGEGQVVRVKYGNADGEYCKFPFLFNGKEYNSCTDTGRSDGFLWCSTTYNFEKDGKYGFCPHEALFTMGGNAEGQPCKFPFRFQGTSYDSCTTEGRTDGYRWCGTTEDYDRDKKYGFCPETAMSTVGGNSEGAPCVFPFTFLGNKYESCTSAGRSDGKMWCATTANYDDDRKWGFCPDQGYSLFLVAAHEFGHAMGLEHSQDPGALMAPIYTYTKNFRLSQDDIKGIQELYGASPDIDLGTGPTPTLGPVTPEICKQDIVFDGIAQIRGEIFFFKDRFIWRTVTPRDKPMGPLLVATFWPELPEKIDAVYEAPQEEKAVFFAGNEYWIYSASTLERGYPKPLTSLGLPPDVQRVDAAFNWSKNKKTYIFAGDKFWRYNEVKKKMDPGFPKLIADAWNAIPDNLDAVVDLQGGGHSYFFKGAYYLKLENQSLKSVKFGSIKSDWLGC

MMP-2 [2] = assay: Substrate phage display with NGS: relative probability (RP) of P3-P1' tetramer clusters; assay type: biochemical, human; conditions: MMP2;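 further: ratio of tetramer probability after protease selection to that in naive phage library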
[3] = individual phage substrates, set of 1369 peptides, hyphen in sequence marks cleavage position
[4] = individual phage substrates, set of 1369 peptides, cleavage position marked by hyphen in sequence
[5] = RP of the P3-P1' tetramer contained in the substrate (substrate phage display with NGS)
[6] = individual phage substrate of the set of 1369 peptides, dash in the sequence marks the cleavage position
[7] = individual phage substrate of the set of 1369 peptides, cleavage position marked by '-'
[8] = RP of the P3-P1' tetramer contained in the substrate

Chain of MMP-9 (P14780 94-707): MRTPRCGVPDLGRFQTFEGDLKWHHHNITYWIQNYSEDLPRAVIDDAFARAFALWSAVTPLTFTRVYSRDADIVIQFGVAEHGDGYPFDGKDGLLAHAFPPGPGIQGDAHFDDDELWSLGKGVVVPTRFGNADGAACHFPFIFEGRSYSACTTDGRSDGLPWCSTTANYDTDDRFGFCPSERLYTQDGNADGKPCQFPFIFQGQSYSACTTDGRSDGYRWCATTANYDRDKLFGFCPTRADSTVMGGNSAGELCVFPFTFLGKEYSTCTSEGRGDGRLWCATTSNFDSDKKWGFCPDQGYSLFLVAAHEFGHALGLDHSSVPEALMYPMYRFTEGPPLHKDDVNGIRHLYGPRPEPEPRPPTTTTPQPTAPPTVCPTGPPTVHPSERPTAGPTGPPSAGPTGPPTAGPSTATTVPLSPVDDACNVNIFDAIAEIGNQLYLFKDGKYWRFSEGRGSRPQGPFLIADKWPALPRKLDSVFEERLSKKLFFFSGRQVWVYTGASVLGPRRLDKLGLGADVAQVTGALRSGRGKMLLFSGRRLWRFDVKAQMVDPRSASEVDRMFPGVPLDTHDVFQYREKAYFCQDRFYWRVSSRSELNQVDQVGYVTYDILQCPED

| Substance | Kobs (MMP-9; [3]) [M⁻¹ s⁻¹] | Kobs (MMP-2 [1]; [4]) [M⁻¹ s⁻¹] | relative probability (RP) (MMP-2 [2]; [5]) | Kobs (MMP-9; [6]) [M⁻¹ s⁻¹] | Kobs (MMP-2 [1]; [7]) [M⁻¹ s⁻¹] | relative probability (RP) (MMP-2 [2]; [8]) |
| --- | --- | --- | --- | --- | --- | --- |
| AHVFA-LTASG | 8941.32 | 4205.91 | 11.8827 |  |  |  |
| VRAHS-LTASG | 4922.1 | 4205.91 | 21.0212 |  |  |  |
| TAPKL-LTASG |  |  |  | 12792.1 | 7815.03 | 15.3454 |
| SGAQM-LRGTA | 5461.43 | 4082.43 | 8.608 |  |  |  |
| GRLGN-LWTAS |  |  |  | 0 | 5667.28 | 33.3542 |
| GSPAS-LRTAS |  |  |  | 12792.1 | 12792.1 | 36.4285 |
| SGVRH-LINTA |  |  |  | 8321.48 | 1763.55 | 25.4239 |
| RIPRF-LTASG |  |  |  | 12792.1 | 12792.1 | 28.4443 |
| GSVHH-LITAS |  |  |  | 0 | 0 | 14.1228 |
| GIPRP-VMTAS |  |  |  | 6131.32 | 6688.74 | 29.4989 |
| SGPRS-MLNTA |  |  |  | 5461.43 | 6688.74 | 32.6673 |
| SGGSG-LRVKR | 231.616 | 551.253 | 1.9698 |  |  |  |
| GLPYA-LYTAS | 12792.1 | 12792.1 | 33.2554 |  |  |  |
| SGVWG-IYVTA | 2761.81 | 484.315 | 3.01 |  |  |  |
| WDALG-ITASG |  |  |  | 2097.28 | 3850.82 | 18.2164 |
| GMPRY-MTASG |  |  |  | 12792.1 | 4335.13 | 28.0367 |
| YPFGS-LTASG |  |  |  | 355.093 | 12792.1 | 21.9152 |
| SGVRF-LMNTA |  |  |  | 9740.44 | 1418.96 | 15.0438 |
| ANYSN-ITASG | 0 | 4470.66 | 14.6847 |  |  |  |
| GGVSF-LLTAS | 27.918 | 1112.44 | 5.918 |  |  |  |
| SGPMF-LWTTA |  |  |  | 10866.7 | 1283.43 | 18.5721 |
| RDVLA-LTASG | 3165.09 | 3438.54 | 13.5229 |  |  |  |
| EMSWG-LTASG | 231.616 | 0 | 0.1389 |  |  |  |
| YDTQH-LTASG | 0 | 0 | 2.922 |  |  |  |
| SGPVH-LLNTA |  |  |  | 2280.5 | 3344.37 | 32.2352 |
| SGMAA-LKRTA |  |  |  | 0 | 3741.87 | 32.6562 |
| SLNRA-LTASG |  |  |  | 4470.66 | 12792.1 | 16.7485 |

| Substance | Kobs (MMP-9; [3]) [M⁻¹ s⁻¹] | Kobs (MMP-2 [1]; [4]) [M⁻¹ s⁻¹] | relative probability (RP) (MMP-2 [2]; [5]) | Kobs (MMP-9; [6]) [M⁻¹ s⁻¹] | Kobs (MMP-2 [1]; [7]) [M⁻¹ s⁻¹] | relative probability (RP) (MMP-2 [2]; [8]) |
| --- | --- | --- | --- | --- | --- | --- |
| DNTFH-LTASG |  |  |  | 0 | 142.481 | 0.1298 |
| GNVAN-LTASG | 1327.88 | 12792.1 | 34.9662 |  |  |  |
| TTPYH-ITASG |  |  |  | 12792.1 | 4922.1 | 15.3574 |
| SGPRP-LYHTA | 12792.1 | 12792.1 | 34.3303 |  |  |  |
| APYNH-LTASG |  |  |  | 990.764 | 1327.88 | 3.693 |
| TNPIM-LTASG | 1071.29 | 418.952 | 15.4441 |  |  |  |
| GNAIH-LQTAS |  |  |  | 0 | 1196.62 | 13.4941 |
| GRARW-LMTAS |  |  |  | 3079.62 | 1561.44 | 19.0362 |
| GYPRA-FSTAS |  |  |  | 12792.1 | 12792.1 | 31.8957 |
| GKLAS-LRTAS | 84.609 | 10866.7 | 31.1996 |  |  |  |
| SGPAA-LLGTA |  |  |  | 12792.1 | 8941.32 | 35.8015 |
| QKVLN-MTASG | 5269.78 | 2476.66 | 19.025 |  |  |  |
| RVPYG-LTASG |  |  |  | 7015.91 | 6131.32 | 32.9966 |
| SGPRG-QVFTA |  |  |  | 8941.32 | 12792.1 | 29.4864 |
| QVSWA-WTASG | 231.616 | 0 | 0.05632 |  |  |  |
| SGYAS-MVATA | 0 | 5667.28 | 24.1553 |  |  |  |
| SRYLP-MTASG | 0 | 0 | 0.4306 |  |  |  |
| GAAHG-IFTAS |  |  |  | 261.974 | 690.17 | 8.881 |
| GLPTA-LRTAS | 5667.28 | 12792.1 | 32.8941 |  |  |  |
| VRLNY-LTASG | 0 | 4763.33 | 12.3459 |  |  |  |
| FMPSA-QTASG |  |  |  | 9740.44 | 10866.7 | 28.0379 |
| GSGFS-LRTWT | 0 | 0 | 0.09752 |  |  |  |
| RPPSS-LTASG | 9740.44 | 10866.7 | 35.4913 |  |  |  |
| SGFAH-LTSTA | 171.876 | 4763.33 | 19.6504 |  |  |  |
| SGPYT-LVMTA | 8321.48 | 517.582 | 16.827 |  |  |  |
| GHVRH-LLTAS |  |  |  | 386.839 | 2545.25 | 25.4239 |
